Measured values as given in US12576083B2, “Combinational therapy of LSD1 inhibitors with P21 activators in the treatment of cancer” (Istituto Europeo di Oncologia S.r.l., priority 2017, dated 2026).

System: p21
Assay: p21 expression in NB4 cells treated with HDAC inhibitors
Type: cell-based
Settings: with p21-shRNA or scramble shRNA
Method: FIGS. 9A-9C. […] (FIG. 9B) NB4 cells were infected with SCR (control) or P21 shRNA, and knockdown was monitored by qPCR. Values are normalized against GAPDH. (FIG. 9C) Monitoring of p21 expression upon the indicated treatments. (SCR=Scramble shRNA, NI=Not Infected, HDACi=HDAC inhibitor=SAHA or TSA).
NB4 cells were treated with HDAC inhibitors, trichostatin A (TSA) and suberoylanilide hydroxamic acid (SAHA), in combination with p21-shRNA or scramble shRNA (SCR). NB4 cells with p21 knock-down without HDAC inhibitor treatment (p21KD-DMSO), NB4 cells without p21 knock-down and without HDAC inhibitor treatment (Scr-DMSO), untreated UF1 cells (UF1-DMSO) were included as control.

SMILES	p21 expression in NB4 cells
O=C(CCCCCCC(=O)Nc1ccccc1)NO [SAHA, suberoylanilide hydroxamic acid]	induced p21 expression
CC(/C=C/C(=O)NO)=C\[C@@H](C)C(=O)c1ccc(N(C)C)cc1 [TSA, trichostatin A]	induced p21 expression
